Reference: patent US11807625B2, “Capsid inhibitors for the prevention of HIV” (Gilead Sciences, Inc., priority 2019, dated 2023)
Read-outs that look alike come from different tables or passages of the source.

Experiment: PK of compound of Formula (Ia) after single subcutaneous dose of solution formulations in Wistar Han rats
Assay type: in vivo
Settings: male, Wistar Han, rat, plasma, sc, 50 mg/kg, mean ± SD
Description: Formulations containing the compound of Formula (Ia), or a pharmaceutically acceptable salt thereof, were prepared as solutions and optionally administered subcutaneously or intramuscularly to rats, rabbits, and/or dogs.
A solution of about 400 mg/mL of the compound of Formula (Ia) having 19.14 w/w % water, 40.66 w/w % PEG 300, 35.20 w/w % of a sodium salt of a compound of Formula (Ia), and 5.00% ethanol was prepared. The solution was administered subcutaneously to male Wistar Han rats at a dose level of about 50 mg/kg and dose volume of 0.125 mL/kg and the pharmacokinetic (PK) profile was determined.
A solution of about 500 mg/mL of the compound of Formula (Ia) having 16.64 w/w % water, 35.36 w/w % PEG 300, 43.00 w/w % of a sodium salt of a compound of Formula (Ia), and 5.00% ethanol was prepared. The solution was administered subcutaneously to male Wistar Han rats at a dose level of about 50 mg/kg and dose volume of 0.1 mL/kg and the pharmacokinetic (PK) profile was determined.
A solution of about 400 mg/mL of the compound of Formula (Ia) having 17.00 w/w % water, 36.40 w/w % PEG 300, 35.20 w/w % of a sodium salt of a compound of Formula (Ia), 5.00 w/w % ethanol, and 6.40 w/w % poloxamer 188 was prepared. The solution was administered subcutaneously to male beagle dogs at a dose level of about 12 mg/kg and male Wistar Han rats at a dose level of about 50 mg/kg. The pharmacokinetic profiles were determined, and the results for dogs are summarized in Table and Table, while the results for rats are summarized in Table and Table below.
A solution of about 500 mg/mL of the compound of Formula (Ia) having 14.06 w/w % water, 30.12 w/w % PEG 300, […] of a sodium salt of a compound of Formula (Ia), 5.00 w/w % ethanol, and 6.40 w/w % poloxamer 188 was prepared. The solution was administered subcutaneously to male beagle dogs at a dose level of about 12 mg/kg and male Wistar Han rats at a dose level of about 50 mg/kg. The pharmacokinetic profiles were determined, and the results for dogs are summarized in Table and Table, while the results for rats are summarized in Table and Table below.
A solution of about 300 mg/mL of the compound of Formula (Ia) having 23.33 w/w % water, 48.99 w/w % PEG 300, 26.47 w/w % of a sodium salt of a compound of Formula (Ia), and 1.21 w/w % poloxamer 188 was prepared. The solution was administered subcutaneously to male beagle dogs at a dose level of about 6 mg/kg and male Wistar Han rats at a dose level of about 50 mg/kg. The pharmacokinetic profiles were determined, and the results for dogs are summarized in Table and Table, while the results for rats are summarized in Table and Table below.
A solution of about 400 mg/mL of the compound of Formula (Ia) having 18.80 w/w % water, 40.25 w/w % PEG 300, 34.38 w/w % of a sodium salt of a compound of Formula (Ia), 5.00 w/w % ethanol, and 1.57 w/w % poloxamer 188 was prepared. The solution was administered subcutaneously to male beagle dogs at a dose level of about 12 mg/kg and male Wistar Han rats at a dose level of about 50 mg/kg. The pharmacokinetic profiles were determined, and the results for dogs are summarized in Table and Table, while the results for rats are summarized in Table and Table below.
A solution of about 500 mg/mL of the compound of Formula (Ia) having 16.29 w/w % water, 34.88 w/w % PEG 300, 41.92 w/w % of a sodium salt of a compound of Formula (Ia), 5.00 w/w % ethanol, and 1.91 w/w % poloxamer 188 was prepared. The solution was administered subcutaneously to male beagle dogs at a dose level of about 12 mg/kg and male Wistar Han rats at a dose level of about 50 mg/kg. The pharmacokinetic profiles were determined, and the results for dogs are summarized in Table and Table, while the results for rats are summarized in Table and Table below.
A solution of about 400 mg/mL of the compound of Formula (Ia) having 20.90 w/w % water, 44.72 w/w % PEG 300, and 34.38 w/w % of a sodium salt of a compound of Formula (Ia) was prepared. […]

**Q.** What does the source list for `CC(C)(C#Cc1ccc(-c2ccc(Cl)c3c(NS(C)(=O)=O)nn(CC(F)(F)F)c23)c([C@H](Cc2cc(F)cc(F)c2)NC(=O)Cn2nc(C(F)(F)F)c3c2C(F)(F)[C@@H]2C[C@H]32)n1)S(C)(=O)=O` [compound of Formula (Ia)]?
**A.** AUC(0-t) (male Wistar Han rats, single SC 50 mg/kg, 400 mg/mL solution Y (water, PEG 300), n = 4, read-out: AUC0-336 h): 31.6 ± 10.9 µM·h; AUC(0-t) (male Wistar Han rats, single SC 50 mg/kg, 400 mg/mL solution Y (water, PEG 300), n = 4, read-out: AUC0-672 h): 74.9 ± 33.7 µM·h; AUC(0-t) (male Wistar Han rats, single SC 50 mg/kg, 400 mg/mL solution Y (water, PEG 300), n = 4, read-out: AUC0-1008 h): 128 ± 64 µM·h; AUC(0-t) (male Wistar Han rats, single SC 50 mg/kg, 400 mg/mL solution Y (water, PEG 300), n = 4, read-out: AUC0-1344 h): 182 ± 100 µM·h; AUC(0-t) (male Wistar Han rats, single SC 50 mg/kg, 400 mg/mL solution Y (water, PEG 300), n = 4, read-out: AUC0-1680 h): 230 ± 132 µM·h; AUC(0-t) (male Wistar Han rats, single SC 50 mg/kg, 400 mg/mL solution Y (water, PEG 300), n = 4, read-out: AUC0-2352 h): 312 ± 181 µM·h; AUC(0-t) (male Wistar Han rats, single SC 50 mg/kg, 400 mg/mL solution Y (water, PEG 300), n = 4, read-out: AUC0-3024 h): 389 ± 229 µM·h; AUC(0-t) (male Wistar Han rats, single SC 50 mg/kg, 400 mg/mL solution Y (water, PEG 300), n = 4, read-out: AUC0-3696 h): 454 ± 255 µM·h; AUC(0-t) (male Wistar Han rats, single SC 50 mg/kg, 400 mg/mL solution Z (3.13% poloxamer 188), n = 4, read-out: AUC0-24 h): 2.37 ± 1.6 µM·h; AUC(0-t) (male Wistar Han rats, single SC 50 mg/kg, 400 mg/mL solution Z (3.13% poloxamer 188), n = 4, read-out: AUC0-168 h): 23.9 ± 12.4 µM·h; AUC(0-t) (male Wistar Han rats, single SC 50 mg/kg, 400 mg/mL solution Z (3.13% poloxamer 188), n = 4, read-out: AUC0-336 h): 49.4 ± 25.4 µM·h; AUC(0-t) (male Wistar Han rats, single SC 50 mg/kg, 400 mg/mL solution Z (3.13% poloxamer 188), n = 4, read-out: AUC0-672 h): 106 ± 49 µM·h; AUC(0-t) (male Wistar Han rats, single SC 50 mg/kg, 400 mg/mL solution Z (3.13% poloxamer 188), n = 4, read-out: AUC0-1008 h): 163 ± 68 µM·h; AUC(0-t) (male Wistar Han rats, single SC 50 mg/kg, 400 mg/mL solution Z (3.13% poloxamer 188), n = 4, read-out: AUC0-1344 h): 214 ± 85 µM·h; AUC(0-t) (male Wistar Han rats, single SC 50 mg/kg, 400 mg/mL solution Z (3.13% poloxamer 188), n = 4, read-out: AUC0-1680 h): 259 ± 99 µM·h; AUC(0-t) (male Wistar Han rats, single SC 50 mg/kg, 400 mg/mL solution Z (3.13% poloxamer 188), n = 4, read-out: AUC0-2352 h): 344 ± 117 µM·h; AUC(0-t) (male Wistar Han rats, single SC 50 mg/kg, 400 mg/mL solution Z (3.13% poloxamer 188), n = 4, read-out: AUC0-3024 h): 435 ± 129 µM·h; AUC(0-t) (male Wistar Han rats, single SC 50 mg/kg, 400 mg/mL solution Z (3.13% poloxamer 188), n = 4, read-out: AUC0-3696 h): 544 ± 156 µM·h; AUC(0-t) (male Wistar Han rats, single SC 50 mg/kg, 500 mg/mL solution X (5.00% ethanol, 1.91% poloxamer 188), n = 3, read-out: AUC0-24 h): 2.82 ± 0.53 µM·h; AUC(0-t) (male Wistar Han rats, single SC 50 mg/kg, 500 mg/mL solution X (5.00% ethanol, 1.91% poloxamer 188), n = 3, read-out: AUC0-168 h): 30.1 ± 5.1 µM·h; AUC(0-t) (male Wistar Han rats, single SC 50 mg/kg, 500 mg/mL solution X (5.00% ethanol, 1.91% poloxamer 188), n = 3, read-out: AUC0-336 h): 64.5 ± 11.4 µM·h; AUC(0-t) (male Wistar Han rats, single SC 50 mg/kg, 500 mg/mL solution X (5.00% ethanol, 1.91% poloxamer 188), n = 3, read-out: AUC0-672 h): 152 ± 23 µM·h; AUC(0-t) (male Wistar Han rats, single SC 50 mg/kg, 500 mg/mL solution X (5.00% ethanol, 1.91% poloxamer 188), n = 3, read-out: AUC0-1008 h): 244 ± 29 µM·h; AUC(0-t) (male Wistar Han rats, single SC 50 mg/kg, 500 mg/mL solution X (5.00% ethanol, 1.91% poloxamer 188), n = 3, read-out: AUC0-1344 h): 329 ± 35 µM·h; AUC(0-t) (male Wistar Han rats, single SC 50 mg/kg, 500 mg/mL solution X (5.00% ethanol, 1.91% poloxamer 188), n = 3, read-out: AUC0-1680 h): 416 ± 47 µM·h; AUC(0-t) (male Wistar Han rats, single SC 50 mg/kg, 500 mg/mL solution X (5.00% ethanol, 1.91% poloxamer 188), n = 3, read-out: AUC0-2352 h): 549 ± 64 µM·h; AUC(0-t) (male Wistar Han rats, single SC 50 mg/kg, 500 mg/mL solution X (5.00% ethanol, 1.91% poloxamer 188), n = 3, read-out: AUC0-3024 h): 659 ± 80 µM·h; AUC(0-t) (male Wistar Han rats, single SC 50 mg/kg, 500 mg/mL solution X (5.00% ethanol, 1.91% poloxamer 188), n = 3, read-out: AUC0-3696 h): 761 ± 84 µM·h; AUC(0-t) (male Wistar Han rats, single SC 50 mg/kg, 500 mg/mL solution X (5.00% ethanol, 1.91% poloxamer 188), n = 3, read-out: AUC0-4704 h): 806 ± 83 µM·h; Cmax (n = 3 rats, SC 50 mg/kg, solution R, 400 mg/mL): 370 ± 65 nM; AUC(0-t) (n = 3 rats, SC 50 mg/kg, solution R, 400 mg/mL, read-out: AUC0-24h): 3.02 ± 0.65 µM·h; AUC(0-t) (n = 3 rats, SC 50 mg/kg, solution R, 400 mg/mL, read-out: AUC0-168h): 25.2 ± 5.3 µM·h; AUC(0-t) (n = 3 rats, SC 50 mg/kg, solution R, 400 mg/mL, read-out: AUC0-336h): 60.6 ± 8.3 µM·h; AUC(0-t) (n = 3 rats, SC 50 mg/kg, solution R, 400 mg/mL, read-out: AUC0-672h): 170 ± 5.4 µM·h; AUC(0-t) (n = 3 rats, SC 50 mg/kg, solution R, 400 mg/mL, read-out: AUC0-1008h): 287 ± 32 µM·h
